From US11484579B2, “Vitamins and alpha keto acid compositions for use in a treatment program for chronic kidney disease patients” (priority 2017, dated 2022)

Test: Certificate of analysis: solubility
Format: physicochemical
Conditions: batch SCP-PAMA-03; specification: Soluble in water

Question: For `O=C(Cc1ccccc1)C(=O)[O][Mg][O]C(=O)C(=O)Cc1ccccc1` [Alpha keto phenylalanine magnesium], which Solubility is on record?
Answer: Soluble in water
